This is an account of results in US8557814B2, “mTOR inhibitor salt forms” (OSI Pharmaceuticals, LLC, priority 2008, dated 2013).

In general, pIC50 refers to the negative decadic logarithm of the IC50, by convention in mol/L. Lower therefore signals a high IC50.

pIC50: −log10 of the molar value. Where a name gives a salt, the structure may show the parent alone. Read-outs that look alike come from different tables or passages of the source.

One series can be described thus: Solubility in water. It is filed as physicochemical.
Series [1] in a line: Vapor sorption analysis (DVS), hygroscopicity. The format is physicochemical.
The nature of series [2]: Stability at 40° C. and 75% RH. It is filed as physicochemical. The settings on record: 30 days at 40° C. and 75% RH.
The target of the next series is T1, mTOR (Homo sapiens, UniProt P42345).
T1 construct: endogenous in cells; host or cells: MDA-MB-231 cells
The series is described as follows: mTOR cell-based mechanistic assay: inhibition of phosphorylation of 4E-BP1 (T37/46) in MDA-MB-231 cells. The settings on record: 3 h treatment. How it is done:
MDA-MB-231 cells were plated in 96 well plates at 2×10^4 cells/well in 90 uL of Complete growth medium and incubated at 37° C. overnight in a CO2 incubator. […] Cell lysates' were transferred to a 96-well plate coated with 4E-BP1 antibodies to capture phospho-4E-BP1 (T37/46) and incubated overnight at 4° C. The amount of phospho-4E-BP1 in each well is further measured by incubating the wells with anti-rabbit phospho-4E-BP1 (T37/46) antibodies and a corresponding goat anti-rabbit IgG conjugated to HRP. The amount of HRP present in each well is measured by a chemiluminescence method, which corresponds to amount of phospho-4E-BP1 in each well. IC50 values were determined using a 6-point dose response curve.

For the compound `COc1cccc2cc(-c3nc([C@H]4CC[C@H](C(=O)O)CC4)n4ncnc(N)c34)[nH]c12` [Example 1, trans-4-[4-amino-5-(7-methoxy-1H-indol-2-yl)imidazo[5,1-f][1,2,4]triazin-7-yl]cyclohexane carboxylic acid tromethamine salt], the solubility in water result in the series “Solubility in water” is “approximately 6 mg/mL”. Further, the “hygroscopicity (DVS)” value in series [1] (at 90-95% RH) is 2-4%. Moreover, the “stability (degradation)” value in series [2] is on record as “no significant degradation”. Consider `COc1cccc2cc(-c3nc([C@H]4CC[C@H](C(=O)O)CC4)n4ncnc(N)c34)[nH]c12` [trans-4-[4-amino-5-(7-methoxy-1H-indol-2-yl)-imidazo[5,1-f][1,2,4]triazin-7-yl]cyclohexanecarboxylic acid], for which the pIC50 against mTOR is about 6.00. Regarding `COc1cccc2cc(-c3nc([C@H]4CC[C@H](C(=O)O)CC4)n4ncnc(N)c34)[nH]c12` [Example 3, trans-4-[4-amino-5-(7-methoxy-1H-indol-2-yl)imidazo[5,1-f][1,2,4]triazin-7-yl]cyclohexanecarboxylic acid sodium salt], in “Solubility in water” (sodium salt), the solubility in water is over 30 mg/mL. In the case of “trans-4-[4-amino-5-(7-methoxy-1H-indol-2-yl)imidazo[5,1-f][1,2,4]triazin-7-yl]cyclohexane carboxylic acid calcium salt [Example 2]”, the “hygroscopicity, weight gain (DVS)” value in series [1] (from 0 to 95% RH) was 35%.
